# Test results: patent US4845195A, “Inhibitor of ribonucleotide reductase” (Merck & Co., Inc., priority 1987, dated 1989)
# Ends that are not written are not given here. Peptide text beside a SMILES is read from it. * marks the point of attachment. Desaminotyrosyl = O=C(CCc1ccc(O)cc1)*
# How the values were obtained:
# [1] = target: T1, Herpes Simplex Virus Ribonucleotide Reductase (Human herpesvirus 2, UniProt P89462); assay: Assay of Inhibition of HSV RR Activity (reduction of tritiated cytidine-diphosphate); type: biochemical, HSV2 Strain 186; conditions: 30 minutes at 37°C, dithiothreitol and MgCl2, enzyme not preincubated with inhibitor; read-out: IC50 (μM concentration of peptide producing 50% inhibition of enzyme activity)
# T1 construct: HSV RR was purified from Baby Hamster Kidney cells that were cultured with HSV2 Strain 186; made in house; host or cells: Baby Hamster Kidney cells infected with HSV2 Strain 186
# T1 sequence (P89462 whole entry): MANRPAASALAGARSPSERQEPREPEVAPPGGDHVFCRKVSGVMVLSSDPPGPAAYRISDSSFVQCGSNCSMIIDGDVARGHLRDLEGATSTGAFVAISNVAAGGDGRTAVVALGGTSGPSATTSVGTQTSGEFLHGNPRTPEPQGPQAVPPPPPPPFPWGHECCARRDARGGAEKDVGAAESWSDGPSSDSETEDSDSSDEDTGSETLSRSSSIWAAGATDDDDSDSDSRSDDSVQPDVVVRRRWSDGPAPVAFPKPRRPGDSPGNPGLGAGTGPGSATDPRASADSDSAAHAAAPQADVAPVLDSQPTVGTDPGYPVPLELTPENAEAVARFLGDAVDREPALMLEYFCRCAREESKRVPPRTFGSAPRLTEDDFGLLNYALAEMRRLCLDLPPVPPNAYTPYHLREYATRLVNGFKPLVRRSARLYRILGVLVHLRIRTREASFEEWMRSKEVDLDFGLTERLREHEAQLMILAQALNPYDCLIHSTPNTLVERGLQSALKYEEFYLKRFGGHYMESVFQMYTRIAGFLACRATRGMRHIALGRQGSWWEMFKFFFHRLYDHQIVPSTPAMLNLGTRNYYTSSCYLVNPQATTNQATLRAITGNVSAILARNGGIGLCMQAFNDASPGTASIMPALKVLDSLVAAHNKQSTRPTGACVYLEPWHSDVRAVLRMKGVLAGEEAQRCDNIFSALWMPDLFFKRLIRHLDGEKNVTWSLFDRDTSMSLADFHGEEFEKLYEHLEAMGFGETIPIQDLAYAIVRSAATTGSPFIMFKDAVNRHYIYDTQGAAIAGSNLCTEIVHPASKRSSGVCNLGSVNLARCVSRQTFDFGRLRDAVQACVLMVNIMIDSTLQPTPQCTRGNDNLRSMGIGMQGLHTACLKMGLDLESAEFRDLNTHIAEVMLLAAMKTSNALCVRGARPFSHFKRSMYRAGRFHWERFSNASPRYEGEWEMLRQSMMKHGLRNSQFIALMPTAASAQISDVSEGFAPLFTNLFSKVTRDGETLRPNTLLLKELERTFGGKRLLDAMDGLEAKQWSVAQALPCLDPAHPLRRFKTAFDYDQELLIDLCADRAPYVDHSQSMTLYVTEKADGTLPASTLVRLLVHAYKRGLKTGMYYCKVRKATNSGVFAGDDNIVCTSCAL
# Procedure: After infection, cells were harvested and lysed. Crude HSV RR was prepared as described by Huszar et al., J. Virol.
# HSV RR activity was determined as the ability of the enzyme to catalyze the reduction of tritiated cytidine-diphosphate to deoxyribo-cytidinediphosphate in 30 minutes at 37°C. in the presence of dithiothreitol and MgCl2. Activity of oligopeptide inhibitors was determined by adding them to the reaction mix at the beginning of the incubation. Enzyme was not preincubated with inhibitor.
# These were analyzed for amino acid composition and in some cases sequenced. Dry peptides were resuspended in 100 mM HEPES (pH 8.0) at about 2mM, relyophilized, and stored in aliquots at -80° C. Immediately prior to use they were rehydrated with distilled H2 O and centrifuged to remove any undissolved peptide.
# [2] = target: ribonucleotide reductase enzyme of herpes simplex virus (Human herpesvirus 1, UniProt P08543); conditions: Nature 321:439-441 and 441-443 (1986); cited from earlier work
# Chain of ribonucleotide reductase enzyme of herpes simplex virus (P08543 whole entry): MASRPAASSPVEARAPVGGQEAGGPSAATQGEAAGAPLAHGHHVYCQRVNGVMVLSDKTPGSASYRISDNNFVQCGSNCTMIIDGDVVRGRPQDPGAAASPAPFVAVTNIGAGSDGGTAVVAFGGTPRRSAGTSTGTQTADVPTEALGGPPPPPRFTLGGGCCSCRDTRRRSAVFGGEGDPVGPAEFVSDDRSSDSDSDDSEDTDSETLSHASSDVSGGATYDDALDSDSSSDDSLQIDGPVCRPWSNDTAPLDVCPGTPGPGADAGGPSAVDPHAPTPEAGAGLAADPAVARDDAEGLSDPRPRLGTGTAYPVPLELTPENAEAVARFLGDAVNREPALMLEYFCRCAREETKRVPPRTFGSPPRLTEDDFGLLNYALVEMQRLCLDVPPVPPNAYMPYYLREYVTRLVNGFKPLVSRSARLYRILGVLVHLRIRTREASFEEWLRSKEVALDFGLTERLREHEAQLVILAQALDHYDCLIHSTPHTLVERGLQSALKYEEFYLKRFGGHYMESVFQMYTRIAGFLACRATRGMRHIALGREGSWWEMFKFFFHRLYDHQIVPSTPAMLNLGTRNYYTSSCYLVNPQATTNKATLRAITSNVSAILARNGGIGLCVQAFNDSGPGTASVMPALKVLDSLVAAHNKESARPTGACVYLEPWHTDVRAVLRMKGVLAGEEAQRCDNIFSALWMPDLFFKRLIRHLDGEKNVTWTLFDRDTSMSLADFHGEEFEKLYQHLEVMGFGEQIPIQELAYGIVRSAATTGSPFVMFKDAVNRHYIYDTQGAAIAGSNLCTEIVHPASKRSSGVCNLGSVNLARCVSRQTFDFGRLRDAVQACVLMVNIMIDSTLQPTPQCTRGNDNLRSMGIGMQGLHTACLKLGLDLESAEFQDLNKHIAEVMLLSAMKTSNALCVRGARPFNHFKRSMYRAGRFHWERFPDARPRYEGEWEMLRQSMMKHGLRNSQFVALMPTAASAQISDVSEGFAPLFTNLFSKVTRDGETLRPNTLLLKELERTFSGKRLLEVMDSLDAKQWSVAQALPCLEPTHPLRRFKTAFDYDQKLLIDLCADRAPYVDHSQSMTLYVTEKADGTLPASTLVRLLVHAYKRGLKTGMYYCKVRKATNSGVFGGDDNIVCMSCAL
Compound,IC50 [1] [µM],inhibition of the activity of the enzyme in vitro [2]
TSYAGAVVNDL [TSYAGAVVNDL],17,–
SYAGAVVNDL [SYAGAVVNDL],17,–
AGAVVNDL [AGAVVNDL],80,–
Ac-AVVNDL [AcAVVNDL],87,–
GAVVNDL [GAVVNDL],70,–
"CC(C)C[C@H](NC(=O)[C@H](CC(=O)O)NC(=O)[C@H](CC(N)=O)NC(=O)[C@@H](NC(=O)[C@@H](N)C(C)C)C(C)C)C(=O)O [VVNDL, Val Val Asn Asp Leu]",250,–
FPLSLMSTDKHTNFFECRSTSYAGAVVNDL,8,–
CC(=O)N[C@@H](Cc1ccc(O)cc1)C(=O)N[C@@H](C)C(=O)NCC(=O)N[C@@H](C)C(=O)N[C@H](C(=O)N[C@H](C(=O)N[C@@H](CC(N)=O)C(=O)N[C@@H](CC(=O)O)C(=O)N[C@@H](CC(C)C)C(=O)O)C(C)C)C(C)C [AcYAGAVVNDL],5,–
STSYAGAVVNDL [STSYAGAVVNDL],17,–
"CC(C)C[C@H](NC(=O)[C@H](CC(=O)O)NC(=O)[C@H](CC(N)=O)NC(=O)[C@@H](NC(=O)[C@@H](NC(=O)[C@H](C)NC(=O)CNC(=O)[C@H](C)NC(=O)[C@@H](N)Cc1ccc(O)cc1)C(C)C)C(C)C)C(=O)O [YAGAVVNDL, Tyr Ala Gly Ala Val Val Asn Asp Leu, reference compound]",10,–
Ac-GAVVNDL [AcGAVVNDL],75,–
"CC(C)C[C@H](NC(=O)[C@H](CC(=O)O)NC(=O)[C@H](CC(N)=O)NC(=O)[C@@H](NC(=O)[C@@H](NC(=O)[C@H](C)NC(=O)CNC(=O)[C@H](C)NC(=O)CCc1ccc(O)cc1)C(C)C)C(C)C)C(=O)O [desNH2--YAGAVVNDL, desNH2-YAGAVVNDL] (Desaminotyrosyl-AGAVVNDL-OH)",20,–
AVVNDL [AVVNDL],51,–
"CC(C)C[C@H](NC(=O)[C@H](CC(=O)O)NC(=O)[C@H](CC(N)=O)NC(=O)[C@@H](NC(=O)[C@@H](NC(=O)[C@H](C)NC(=O)CNC(=O)[C@H](C)NC(=O)[C@@H](N)Cc1ccc(O)cc1)C(C)C)C(C)C)C(N)=O [YAGAVVNDL--NH2, YAGAVVNDL-NH2]",75,–
Tyr GVly Ala Val Val Asn Asp Leu,–,inhibited
